Bounds are passed on as bounds.

Chain of p97 (P55072 whole entry, the tested form may be a part): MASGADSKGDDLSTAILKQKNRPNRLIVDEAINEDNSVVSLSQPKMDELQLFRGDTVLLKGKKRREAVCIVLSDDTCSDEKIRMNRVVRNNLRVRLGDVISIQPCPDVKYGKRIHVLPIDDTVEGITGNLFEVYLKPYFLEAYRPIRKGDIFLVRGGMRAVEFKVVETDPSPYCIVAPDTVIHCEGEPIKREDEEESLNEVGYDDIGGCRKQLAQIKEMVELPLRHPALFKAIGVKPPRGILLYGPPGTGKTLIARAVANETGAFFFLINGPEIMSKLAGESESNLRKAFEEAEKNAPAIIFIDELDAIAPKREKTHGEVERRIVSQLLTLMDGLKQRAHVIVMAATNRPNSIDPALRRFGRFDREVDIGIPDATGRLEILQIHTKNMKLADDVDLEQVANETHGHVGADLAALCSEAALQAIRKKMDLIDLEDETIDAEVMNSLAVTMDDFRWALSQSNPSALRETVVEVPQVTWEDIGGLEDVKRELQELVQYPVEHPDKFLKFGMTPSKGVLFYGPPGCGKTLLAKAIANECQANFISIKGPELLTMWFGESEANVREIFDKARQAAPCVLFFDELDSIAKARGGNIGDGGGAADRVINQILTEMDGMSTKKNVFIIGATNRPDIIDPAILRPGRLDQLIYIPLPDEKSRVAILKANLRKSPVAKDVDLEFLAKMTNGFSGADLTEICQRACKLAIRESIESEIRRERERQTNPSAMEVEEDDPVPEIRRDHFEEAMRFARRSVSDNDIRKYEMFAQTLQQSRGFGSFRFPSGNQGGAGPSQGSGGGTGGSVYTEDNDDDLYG

This test addresses p97 (Homo sapiens, UniProt P55072). Kind of test: P97 ATPase biochemical assay (ADP Glo). The conditions noted are these: 20 nM p97, 20 μM ATP, 37° C. 15 minutes. The method, then: The ATPase assay is performed according the following protocol: Purified enzyme (20 nM p97), substrate (20 μM ATP) and a dose titration of compounds are mixed in buffer (50 mM TRIS pH 7.5, 20 mM MgCl2, 0.02% TX-100, 1 mM DTT, 0.2% (v/v) glycerol) and incubated at 37° C. for 15 minutes. The reaction is terminated and the level of product generated is measured using the ADP Glo Assay Kit (Promega, Madison Wis.). Plotting product generated versus compound concentration and using a four-parameter fit model generates an IC50 value for each compounds.
The p97 assay is an initial screening assay used to determine inhibitory activity of the fused pyrimidine compounds of the invention against the p97 complex. As discussed above, inhibition of activity of the p97 proteosome complex can enable apoptosis and cause elimination of neoplastic cells (cancer cells). The method follows that of Christianson in Nat.
Assay Buffer is a mixture of 50 mM TRIS pH 7.5, 20 mM MgCl2, 0.02% TX-100, 1 mM DTT and 0.2% (v/v) Glycerol. […] The identification kit is an ADP glo kit (Promega): stop buffer, detection reagent.
0.5 μL compound serial diluted in DMSO (Final Conc. 10%)
2 μL ATP (Final Conc.=20 uM, diluted in assay buffer)
2.5 μL p97 (Final Conc.=20 nM, diluted in assay buffer)
Incubate at 37 degC for 15 min.
Add 5 μL of stop buffer, incubate at RT for 40 min.
Add 10 μL of detection reagent, incubate at RT for 30 min.
Read luminescence on Envision plate reader.
Plot normalized luminescence data against log-transformed concentration values and fit to a sigmoidal curve to determine IC50 values (done in Collaborative Drug Discovery software).
A general note: In ADP-Glo the light output rises with the ADP produced.
Regarding `COc1cc2c(C(N)=O)cccc2n1-c1nc2c(c(NCc3ccccc3)n1)CNCC2` [compound 92, 1-[4-(benzylamino)-5H,6H,7H,8H-pyrido[4,3-d]pyrimidin-2-yl]-2-methoxy-1H-indole-4-carboxamide], the IC50 (commonly the point on the concentration scale where inhibition reaches its midpoint) is under 1000 nM.
`COc1cccc2c(NCc3ccccc3)nc(-c3c(C)oc4ccccc34)nc12` [compound 16, N-benzyl-8-methoxy-2-(2-methyl-1-benzofuran-3-yl)quinazolin-4-amine] had an IC50 of under 1000 nM.
For `COc1nc2ccccc2n1-c1nc(NCc2ccccc2)c2ncsc2n1` [compound 4, N-benzyl-5-(2-methoxy-1H-1,3-benzodiazol-1-yl)-[1,3]thiazolo[5,4-d]pyrimidin-7-amine], the IC50 is under 100 nM.
`NC(=O)NCc1cc2c(C(N)=O)cccc2n1-c1nc2c(c(NCc3ccccc3)n1)CCCC2` [compound 127, 1-[4-(benzylamino)-5,6,7,8-tetrahydroquinazolin-2-yl]-2-[(carbamoylamino)methyl]-1H-indole-4-carboxamide] gave an IC50 of under 100 nM.
In turn, `Cc1cc2c(C(=O)NCCN(C)C)cccc2n1-c1nc2c(c(NCc3ccccc3)n1)COCC2` [compound 102, 1-[4-(benzylamino)-5H,7H,8H-pyrano[4,3-d]pyrimidin-2-yl]-N-[2-(dimethylamino)ethyl]-2-methyl-1H-indole-4-carboxamide] gave an IC50 of under 1000 nM.
With `Cc1nc2c(C(N)=O)cccc2n1-c1nc2c(c(NCc3ccccc3)n1)CNCC2` [compound 83, 1-[4-(benzylamino)-5H,6H,7H,8H-pyrido[4,3-d]pyrimidin-2-yl]-2-methyl-1H-1,3-benzodiazole-4-carboxamide], the IC50 is under 1000 nM.
With `Cc1cc2ccccc2n1-c1nc(NCc2ccccc2)c2cccc(CN)c2n1` [compound 2, 8-(aminomethyl)-N-benzyl-2-(2-methyl-1H-indol-1-yl)quinazolin-4-amine] the figure was under 1000 nM.
Take `COCCOc1cccc2c(NCc3ccccc3)nc(-n3c(CN)nc4c(C(N)=O)cccc43)nc12` [compound 88, 2-(aminomethyl)-1-[4-(benzylamino)-8-(2-methoxyethoxy)quinazolin-2-yl]-1H-1,3-benzodiazole-4-carboxamide]: the 50% inhibitory concentration (IC50) is under 1000 nM.
In the case of `Cc1cc2c(C(=O)O)cccc2n1-c1nc2c(c(NCc3ccccc3)n1)CNCC2` [compound 117, 1-[4-(benzylamino)-5H,6H,7H,8H-pyrido[4,3-d]pyrimidin-2-yl]-2-methyl-1H-indole-4-carboxylic acid] it was under 100 nM.
With `NC(=O)c1cccc2c1cc(C1CC1)n2-c1nc2c(c(NCc3ccccc3)n1)COCC2` [compound 131, 1-[4-(benzylamino)-5H,7H,8H-pyrano[4,3-d]pyrimidin-2-yl]-2-cyclopropyl-1H-indole-4-carboxamide], the IC50 was under 30 nM.
`COc1nc2c(C(=O)O)cccc2n1-c1nc2c(c(NCc3ccccc3)n1)CCCC2` [compound 116, 1-[4-(benzylamino)-5,6,7,8-tetrahydroquinazolin-2-yl]-2-methoxy-1H-1,3-benzodiazole-4-carboxylic acid] yielded an IC50 of under 30 nM.
Compound `COc1cccc2c(NCc3ccccc3)nc(-n3c(OC)nc4ccccc43)nc12` [compound 1, N-benzyl-8-methoxy-2-(2-methoxy-1H-1,3-benzodiazol-1-yl)quinazolin-4-amine] had an IC50 of under 100 nM.
In turn, `Cc1cc2ccccc2n1-c1nc2c(c(NCc3ccccc3)n1)CCNC2` [compound 11, N-benzyl-2-(2-methyl-1H-indol-1-yl)-5H,6H,7H,8H-pyrido[3,4-d]pyrimidin-4-amine] gave an IC50 of under 300 nM.
`CC(=O)N1CCc2c(nc(-n3c(C)cc4ccccc43)nc2NCc2ccccc2)C1` [compound 20, 1-[4-(benzylamino)-2-(2-methyl-1H-indol-1-yl)-5H,6H,7H,8H-pyrido[3,4-d]pyrimidin-7-yl]ethan-1-one] yielded an IC50 of under 100 nM.
Consider `Cc1cc2ccccc2n1-c1nc(NCc2ccccc2)c2cccc(C(N)=O)c2n1` [compound 17, 4-(benzylamino)-2-(2-methyl-1H-indol-1-yl)quinazoline-8-carboxamide], for which the IC50 is under 300 nM.
On to `Cc1cc2c(F)cccc2n1-c1nc2c(c(NCc3ccccc3)n1)CNCC2` [compound 41, N-benzyl-2-(4-fluoro-2-methyl-1H-indol-1-yl)-5H,6H,7H,8H-pyrido[4,3-d]pyrimidin-4-amine], for which the IC50 is under 300 nM.
For `CN(C)Cc1cc2c(C(N)=O)cccc2n1-c1nc2c(c(NCc3ccccc3)n1)COCC2` [compound 95, 1-[4-(benzylamino)-5H,7H,8H-pyrano[4,3-d]pyrimidin-2-yl]-2-[(dimethylamino)methyl]-1H-indole-4-carboxamide], the half-inhibitory concentration (IC50) is under 1000 nM.
In the case of `Cc1cc2ccccc2n1-c1nc2c(c(NCc3ccccc3)n1)CNCC2` [compound 10, N-benzyl-2-(2-methyl-1H-indol-1-yl)-5H,6H,7H,8H-pyrido[4,3-d]pyrimidin-4-amine] it was under 300 nM.
Compound `Oc1nc2ccccc2n1-c1nc2c(c(NCc3ccccc3)n1)CCCC2` [compound 89, 1-[4-(benzylamino)-5,6,7,8-tetrahydroquinazolin-2-yl]-1H-1,3-benzodiazol-2-ol] yielded an IC50 of under 1000 nM.
Turning to `Cc1cc2ccccc2n1-c1nc(NCc2ccccc2)c2cccc(C#N)c2n1` [compound 19, 4-(benzylamino)-2-(2-methyl-1H-indol-1-yl)quinazoline-8-carbonitrile], the concentration for half-maximal inhibition (IC50) is under 1000 nM.
As to `CCCN1CCc2nc(-n3c(C)cc4ccccc43)nc(NCc3ccccc3)c2C1` [compound 65, N-benzyl-2-(2-methyl-1H-indol-1-yl)-6-propyl-5H,6H,7H,8H-pyrido[4,3-d]pyrimidin-4-amine], the IC50 is under 1000 nM.
The compound `Cc1cc2c(C(=O)N(C)C)cccc2n1-c1nc2c(c(NCc3ccccc3)n1)CCCC2` [compound 133, 1-(4-(benzylamino)-5,6,7,8-tetrahydroquinazolin-2-yl)-N,N,2-trimethyl-1H-indole-4-carboxamide] returned a half-maximal inhibitory concentration (IC50) of under 1000 nM.
With `COc1cccc2c1cc(C)n2-c1nc2c(c(NCc3ccccc3)n1)CNCC2` [compound 43] the figure was under 1000 nM; with `Cc1cc2c(C(=O)NC(C)C)cccc2n1-c1nc2c(c(NCc3ccccc3)n1)COCC2` [compound 99, 1-[4-(benzylamino)-5H,7H,8H-pyrano[4,3-d]pyrimidin-2-yl]-2-methyl-N-(propan-2-yl)-1H-indole-4-carboxamide], under 1000 nM.
With `COc1cccc2c(NCc3ccccc3)nc(-n3c(CN)cc4ccccc43)nc12` [compound 15, 2-[2-(aminomethyl)-1H-indol-1-yl]-N-benzyl-8-methoxyquinazolin-4-amine] the figure was under 100 nM; with `Cc1cc2c(C(=N)N)cccc2n1-c1nc2c(c(NCc3ccccc3)n1)COCC2` [compound 119], under 1000 nM.
For `CCN1CCc2nc(-n3c(C)cc4ccccc43)nc(NCc3ccccc3)c2C1` [compound 63, N-benzyl-6-ethyl-2-(2-methyl-1H-indol-1-yl)-5H,6H,7H,8H-pyrido[4,3-d]pyrimidin-4-amine], the IC50 was under 1000 nM.
As for `N#Cc1cccc2c1nc(CN)n2-c1nc2c(c(NCc3ccccc3)n1)CCCC2` [compound 87, 2-(aminomethyl)-1-[4-(benzylamino)-5,6,7,8-tetrahydroquinazolin-2-yl]-1H-1,3-benzodiazole-4-carbonitrile], the IC50 is under 1000 nM.

(Values after patent US9475824B2, “Fused pyrimidines as inhibitors of p97 complex” (Cleave Biosciences, Inc., priority 2012, dated 2016).)
